# Assay results reported in patent US10508085B2, “Compounds and methods for IDO and TDO modulation, and indications therefor” (Plexxikon Inc., priority 2016, dated 2019).
# Where two headings read alike, the source gives them in different places.
# How the values were obtained:
# [1] = target: T1, Human Indoleamine 2,3-dioxygenase (IDO) (Homo sapiens, UniProt P14902); experiment: Human IDO enzymatic assay (kynurenine level); assay type: biochemical; conditions: 6 nM IDO, 10 μM L-Trp; geometric mean; read-out: IDO1 GMean: IC50 (μM) (Biochemical Assay)
# T1 construct: His tag (N); made in house; host or cells: E. coli
# How it was run: (§1)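 N-His human IDO (6 nM, 10 μM L-Trp, 5 μM methylene blue, 20 min) or TDO (1 nM, 350 μM L-Trp, 0.4 μM methylene blue, 70 min) run at room temp in pH 6.5 phosphate with ascorbate, catalase, Tween 20. TCA stop, 30 min 50 °C converts N-formylkynurenine to kynurenine; IC50 by nonlinear regression.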
# [2] = target: T2, Human Tryptophan 2,3-dioxygenase (TDO) (Homo sapiens, UniProt P48775); experiment: Human TDO enzymatic assay (kynurenine level); assay type: biochemical; conditions: 1 nM TDO, 350 μM L-Trp; geometric mean; read-out: TDO GMean: IC50 (μM) (Biochemical Assay)
# T2 construct: His tag (N); made in house; host or cells: E. coli
# How it was run: as §1
# [3] = target: T3, human IDO (IDO1-expressing HEK293 cells) (Homo sapiens, UniProt P14902); experiment: Cell based kynurenine assay, IDO1-expressing HEK293 cell clones; conditions: IDO1-expressing HEK293 cells, geometric mean, read-out: HEK293 IDO1 Kynurenine GMean IC50 (μM) (Cellular Assay)
# T3 construct: expressed in transfected cells
# Experimental: (§2) Determine Inhibitor Activity Against IDO or TDO in Cell Based Kynurenine Assay
# (§3) IDO1-expressing or TDO-expressing HEK293 cell clones are generated upon stable transfection of plasmids expressing human IDO or human TDO under the control of CMV promoter. Cells are selected in DMEM media supplemented with 10% fetal bovine serum and 1 mg/ml G418 at 37° C. in a humidified incubator supplied with 5% CO2. The assays are performed as follows.
# (§4) Cells were seeded in a 96 well plate in 50 μL of culture media at a density of 2.5×10^4 per well. Serial dilutions of compounds (in total volume of 50 μL culture media) are added into cells. 4 wells containing 0.2% DMSO treated cells serve as high controls and 4 wells containing media only with 0.2% DMSO serve as low controls. After 24 hours of incubation, the supernatant was transferred to a 384 well reaction plate and the kynurenine level determined. The percentage inhibition at individual concentrations relative to high and low controls is calculated. The data is analyzed by using nonlinear regression to generate IC50 values.
# [4] = target: T4, human TDO (TDO-expressing HEK293 cells) (Homo sapiens, UniProt P48775); experiment: Cell based kynurenine assay, TDO-expressing HEK293 cell clones; conditions: TDO-expressing HEK293 cells, geometric mean, read-out: HEK293 TDO Kynurenine GMean IC50 (μM) (Cellular Assay)
# T4 construct: expressed in transfected cells
# Experimental: as §2, §3, §4
# T4 sequence (P48775 whole entry): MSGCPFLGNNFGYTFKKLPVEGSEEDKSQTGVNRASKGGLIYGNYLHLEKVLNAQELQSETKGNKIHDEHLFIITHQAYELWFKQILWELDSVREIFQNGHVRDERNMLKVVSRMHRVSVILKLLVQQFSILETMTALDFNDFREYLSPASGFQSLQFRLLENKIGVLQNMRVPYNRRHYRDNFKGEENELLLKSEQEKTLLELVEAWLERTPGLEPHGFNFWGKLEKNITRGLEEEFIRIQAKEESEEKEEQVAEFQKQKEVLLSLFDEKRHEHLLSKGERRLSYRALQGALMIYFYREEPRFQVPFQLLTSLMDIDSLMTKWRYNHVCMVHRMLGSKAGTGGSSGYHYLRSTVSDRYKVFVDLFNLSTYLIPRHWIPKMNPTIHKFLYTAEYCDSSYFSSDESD
# T2 sequence (P48775 whole entry): as above
# T3 sequence (P14902 whole entry): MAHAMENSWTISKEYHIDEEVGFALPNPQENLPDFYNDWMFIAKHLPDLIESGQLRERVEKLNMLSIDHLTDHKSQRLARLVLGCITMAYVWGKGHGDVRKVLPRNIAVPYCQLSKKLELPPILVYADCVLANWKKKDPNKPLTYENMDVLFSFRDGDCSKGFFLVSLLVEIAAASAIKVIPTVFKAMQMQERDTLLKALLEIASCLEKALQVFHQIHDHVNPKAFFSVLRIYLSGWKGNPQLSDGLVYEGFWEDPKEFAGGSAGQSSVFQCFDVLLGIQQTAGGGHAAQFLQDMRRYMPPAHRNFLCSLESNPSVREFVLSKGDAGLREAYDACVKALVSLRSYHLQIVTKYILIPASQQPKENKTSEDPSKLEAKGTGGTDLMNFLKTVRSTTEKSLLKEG
# T1 sequence (P14902 whole entry): as above
SMILES,IC50 [1],IC50 [2],IC50 ([3]; 24 hours incubation),IC50 ([4]; 24 hours incubation),IC50 ([3]; 24 hours),IC50 ([4]; 24 hours)
"OC(c1c(F)c(Cl)cc2cn[nH]c12)C1CC2CCC1C2 (stereo not drawn) [Compound P-0258, bicyclo[2.2.1]heptan-2-yl(5-chloro-6-fluoro-1H-indazol-7-yl)methanol]",0.0001 to 10 µM,0.0001 to 10 µM,0.0001 to 10 µM,0.0001 to 10 µM,–,–
"CC(C)S(=O)(=O)N1CC2CCC(C1)C2CC(O)c1cc(Cl)cc2cn[nH]c12 (stereo not drawn) [Compound P-0291, 1-(5-chloro-1H-indazol-7-yl)-2-(3-(isopropylsulfonyl)-3-azabicyclo[3.2.1]octan-8-yl)ethan-1-ol]",0.0001 to 10 µM,0.0001 to 10 µM,0.0001 to 10 µM,0.0001 to 10 µM,–,–
"CNC(=O)N1CCC(C2(C(O)c3c(F)c(Cl)cc4cn[nH]c34)CC2)CC1 (stereo not drawn) [Compound P-0162, 4-(1-((5-chloro-6-fluoro-1H-indazol-7-yl)(hydroxy)methyl)cyclopropyl)-N-methylpiperidine-1-carboxamide]",0.0001 to 10 µM,0.0001 to 10 µM,0.0001 to 10 µM,0.0001 to 10 µM,–,–
"CCCC(=O)N1CCC(C(C)(C)[C@H](O)c2cc(Cl)cc3cn[nH]c23)CC1 [Compound P-0543, (S)-1-(4-(1-(5-chloro-1H-indazol-7-yl)-1-hydroxy-2-methylpropan-2-yl)piperidin-1-yl)butan-1-one]",0.0001 to 10 µM,0.0001 to 10 µM,–,–,0.0001 to 10 µM,0.0001 to 10 µM
"COCCNC(=O)N1CCC(C(C)(C)C(O)c2cc(Cl)cc3cn[nH]c23)CC1 (stereo not drawn) [Compound P-0388, 4-(1-(5-chloro-1H-indazol-7-yl)-1-hydroxy-2-methylpropan-2-yl)-N-(2-methoxyethyl) piperidine-1-carboxamide]",0.0001 to 10 µM,0.0001 to 10 µM,0.0001 to 10 µM,0.0001 to 10 µM,–,–
"CC(C)(C1CCN(C(=O)c2ccc(C(F)(F)F)nc2)CC1)[C@H](O)c1cc(Cl)cc2cn[nH]c12 [Compound P-0537, (S)-(4-(1-(5-chloro-1H-indazol-7-yl)-1-hydroxy-2-methylpropan-2-yl)piperidin-1-yl)(6-(trifluoromethyl)pyridin-3-yl)methanone]",0.0001 to 10 µM,0.0001 to 10 µM,–,–,0.0001 to 10 µM,0.0001 to 10 µM
"COC(=O)N1CCC(C2(C(O)c3cc(Cl)cc4cn[nH]c34)CC2)CC1 (stereo not drawn) [Compound P-0155, methyl 4-(1-((5-chloro-1H-indazol-7-yl)(hydroxy)methyl)cyclopropyl)piperidine-1-carboxylate]",0.0001 to 10 µM,0.0001 to 10 µM,0.0001 to 10 µM,0.0001 to 10 µM,–,–
"CC(C)CC(=O)N1CCC(C(C)(C)C(O)c2cc(Cl)cc3cn[nH]c23)CC1 (stereo not drawn) [Compound P-0411, 1-(4-(1-(5-chloro-1H-indazol-7-yl)-1-hydroxy-2-methylpropan-2-yl)piperidin-1-yl)-3-methylbutan-1-one]",0.0001 to 10 µM,0.0001 to 10 µM,–,–,0.0001 to 10 µM,0.0001 to 10 µM
"CCS(=O)(=O)N1CCC(C(F)(F)C(O)c2cc(Cl)cc3cn[nH]c23)CC1 (stereo not drawn) [Compound P-0276, 1-(5-chloro-1H-indazol-7-yl)-2-(1-(ethylsulfonyl)piperidin-4-yl)-2,2-difluoroethan-1-ol]",0.0001 to 10 µM,0.0001 to 10 µM,0.0001 to 10 µM,0.0001 to 10 µM,–,–
"O=C(NC1CCOCC1)N1CCC(C(F)(F)C(O)c2cc(Cl)cc3cn[nH]c23)CC1 (stereo not drawn) [Compound P-0462, 4-(2-(5-chloro-1H-indazol-7-yl)-1,1-difluoro-2-hydroxyethyl)-N-(tetrahydro-2H-pyran-4-yl)piperidine-1-carboxamide]",0.0001 to 10 µM,0.0001 to 10 µM,–,–,0.0001 to 10 µM,0.0001 to 10 µM
"CC1(C)OC(C)(C)C12CC(O)(c1cc(Cl)cc3cn[nH]c13)C2 [Compound P-0243, 6-(5-chloro-1H-indazol-7-yl)-1,1,3,3-tetramethyl-2-oxaspiro[3.3]heptan-6-ol]",0.0001 to 10 µM,0.0001 to 10 µM,0.0001 to 10 µM,0.0001 to 10 µM,–,–
"CC(C)(C)OC(=O)N1CCC(C(F)(F)C(O)c2c3c(cc4cn[nH]c24)CC3)CC1 (stereo not drawn) [Compound P-0490, tert-butyl 4-(2-(5,6-dihydro-1H-cyclobuta[f]indazol-7-yl)-1,1-difluoro-2-hydroxyethyl) piperidine-1-carboxylate]",0.0001 to 10 µM,0.0001 to 10 µM,–,–,0.0001 to 10 µM,0.0001 to 10 µM
"CC(C)(C1CCN(C(=O)CC#N)CC1)[C@H](O)c1cc(Cl)cc2cn[nH]c12 [Compound P-0534, (S)-3-(4-(1-(5-chloro-1H-indazol-7-yl)-1-hydroxy-2-methylpropan-2-yl)piperidin-1-yl)-3-oxopropanenitrile]",0.0001 to 10 µM,0.0001 to 10 µM,–,–,0.0001 to 10 µM,0.0001 to 10 µM
"COc1ccc(NC(=O)N2CCC(C(C)(C)C(O)c3cc(Cl)cc4cn[nH]c34)CC2)cc1 (stereo not drawn) [Compound P-0183, 4-(1-(5-chloro-1H-indazol-7-yl)-1-hydroxy-2-methylpropan-2-yl)-N-(4-methoxyphenyl)piperidine-1-carboxamide]",0.0001 to 10 µM,0.0001 to 10 µM,0.0001 to 10 µM,0.0001 to 10 µM,–,–
"OC(c1c2c(cc3cn[nH]c13)CC2)C(F)(F)C1CCOCC1 (stereo not drawn) [Compound P-0278, 1-(5,6-dihydro-1H-cyclobuta[f]indazol-7-yl)-2,2-difluoro-2-(tetrahydro-2H-pyran-4-yl)ethan-1-ol]",0.0001 to 10 µM,0.0001 to 10 µM,0.0001 to 10 µM,> 10 µM,–,–
"O=C(c1c2c(cc3cn[nH]c13)CC2)C(F)(F)C1CCOCC1 [Compound P-0275, 1-(5,6-dihydro-1H-cyclobuta[f]indazol-7-yl)-2,2-difluoro-2-(tetrahydro-2H-pyran-4-yl)ethan-1-one]",0.0001 to 10 µM,0.0001 to 10 µM,0.0001 to 10 µM,0.0001 to 10 µM,–,–
"CC(C)(C)OC(=O)N1CCC(C(C)(C)C(O)c2cc(Cl)cc3cn[nH]c23)CC1 (racemic) [Compound P-0163, tert-butyl 4-(1-(5-chloro-1H-indazol-7-yl)-1-hydroxy-2-methylpropan-2-yl)piperidine-1-carboxylate]",0.0001 to 10 µM,0.0001 to 10 µM,0.0001 to 10 µM,0.0001 to 10 µM,–,–
"CCC(C)(CC)C(O)c1cc(Cl)cc2cn[nH]c12 (stereo not drawn) [Compound P-0255, 1-(5-chloro-1H-indazol-7-yl)-2-ethyl-2-methylbutan-1-ol]",0.0001 to 10 µM,0.0001 to 10 µM,0.0001 to 10 µM,0.0001 to 10 µM,–,–
CC(=O)N1C2CCC1CC(C(C)(C)C(O)c1c(F)c(Cl)cc3cn[nH]c13)C2 (stereo not drawn) [Compound P-0300],0.0001 to 10 µM,0.0001 to 10 µM,0.0001 to 10 µM,0.0001 to 10 µM,–,–
"CC(C)(C1CCN(C(=O)Nc2ccc(C#N)cc2)CC1)[C@H](O)c1cc(Cl)cc2cn[nH]c12 [Compound P-0447, (S)-4-(1-(5-chloro-1H-indazol-7-yl)-1-hydroxy-2-methylpropan-2-yl)-N-(4-cyanophenyl) piperidine-1-carboxamide]",0.0001 to 10 µM,0.0001 to 10 µM,–,–,0.0001 to 10 µM,0.0001 to 10 µM
"COCC(=O)N1CCC(C(C)(C)[C@@H](O)c2cc(Cl)cc3cn[nH]c23)CC1 [Compound P-0435, (R)-1-(4-(1-(5-chloro-1H-indazol-7-yl)-1-hydroxy-2-methylpropan-2-yl)piperidin-1-yl)-2-methoxyethan-1-one]",0.0001 to 10 µM,0.0001 to 10 µM,–,–,0.0001 to 10 µM,0.0001 to 10 µM
"CC1(C(O)c2c(Cl)c(Cl)cc3cn[nH]c23)CCCCC1 (stereo not drawn) [Compound P-0025, (5,6-dichloro-1H-indazol-7-yl)(1-methylcyclohexyl)methanol]",0.0001 to 10 µM,0.0001 to 10 µM,0.0001 to 10 µM,0.0001 to 10 µM,–,–
"CC(C)(C1CCN(C(=O)NCCC(F)(F)F)CC1)C(O)c1cc(Cl)cc2cn[nH]c12 (stereo not drawn) [Compound P-0472, 4-(1-(5-chloro-1H-indazol-7-yl)-1-hydroxy-2-methylpropan-2-yl)-N-(3,3,3-trifluoropropyl) piperidine-1-carboxamide]",0.0001 to 10 µM,0.0001 to 10 µM,–,–,0.0001 to 10 µM,0.0001 to 10 µM
"CC(C)(C1CCN(S(C)(=O)=O)CC1)C(O)c1cc(Cl)cc2cn[nH]c12 (stereo not drawn) [Compound P-0198, 1-(5-chloro-1H-indazol-7-yl)-2-methyl-2-(1-(methylsulfonyl)piperidin-4-yl)propan-1-ol]",0.0001 to 10 µM,0.0001 to 10 µM,0.0001 to 10 µM,0.0001 to 10 µM,–,–
